A short description of the series: solubility under the anti-T. gondii protocol conditions. Type of series: physicochemical. The following applies: anti-T. gondii assay protocol, 1 to 100 µg/mL. The protocol:
In the next step of our studies, the prepared 1,4-disubstituted thiosemicarbazides (series 1–3) were used to assess the inhibition of T. gondii growth in vitro. For this purpose, intracellular parasites (tachyzoites) of RH strain were incubated with different concentrations of the thiosemicarbazides ranging from 1 to 100 µg/mL. Inhibition of the parasite growth was monitored by measuring the specific incorporation of [^3H]uracil in the parasite’s nucleic acids. Unfortunately, among the 15 compounds tested, derivatives 1a–1e, 1k, 1l, 2f, 2i, 2j, and 3h were insoluble under the protocol conditions and, consequently, they were eliminated from further experiments. The percentages of the parasite growth inhibition in L929 cells by the remaining compounds 1g, 2b, 3d, 3l and the control drug-sulfadiazine as well as IC50 values are shown in Table 1.
A preliminary assumption was thus put forward that the presence of both the five-membered hetaryl moiety at N1 position and the aryl moiety at N4 position of thiosemicarbazide core are the key functionalities required for potent anti-T. gondii activity of thiosemicarbazide-based compounds, which may be directly linked with the electronic structure of the molecule. In order to verify the preliminary hypothesis, 4-ethyl-1-(thiophen-2-yl)carbonylthiosemicarbazide (1m), 4-cyclohexyl-1-(thiophen-2-yl)carbonylthiosemicarbazide (1n), and 4-ethyl-1-(2-methylfuran-3-yl)carbonylthio-semicarbazide (2m) were synthesized and their bioactivity was tested. Unfortunately, derivatives 1m and 1n were insoluble under the protocol conditions and, consequently, they were eliminated from further experiments. […] The assumption of the existence of the relationship between the anti-T. gondii activity of the studied thiosemicarbazides and their molecular structure was also confirmed based on DFT calculations. Figure 3 illustrates the electrostatic potential mapped on the density surface using the Gaussview program. Neutral fragments are characterized by the green color of the surface. The negative charge is represented by red, while the positive charge is marked in blue. If compound 1g is excluded from the consideration, the biological activity correlates well with the dipole moment of the molecule. In this series it seems that the activity depends on the bimodal partial negative charge developed on the carbonyl oxygen and another moiety on the same side of the molecule (a sulfur atom in 2b and 3d). Its low value in 3l and lack in 2m may be responsible for the lower activity. […] It contains, however, two partial negative charge centers as the series discussed above and an additional such center on the fluorine atom. Comparison of the biological activity of 1g and 2m seems to indicate the crucial role of the second negative charge density on the top of the molecule on a moiety other than the carbonyl oxygen. Another observation that comes from the analysis of the presented structures is that the biological activity is pronounced when the methyl group of the five-membered ring is directed away from the carbonyl group.
For the compound `Cc1occc1C(=O)NNC(=S)Nc1ccc(I)cc1` [Compound 2j], the “solubility under the protocol conditions” value is recorded as “insoluble”.

On to `Cc1ccc(NC(=S)NNC(=O)c2ccoc2C)cc1` [Compound 2f], for which the “solubility under the protocol conditions” value is “insoluble”.

On to `Cc1occc1C(=O)NNC(=S)Nc1ccc(Br)cc1` [Compound 2i], for which the “solubility under the protocol conditions” value was “insoluble”.

`Cc1nnsc1C(=O)NNC(=S)Nc1ccc(Cl)cc1` [Compound 3h]: the “solubility under the protocol conditions” value is recorded as “insoluble”.

In the case of `CCN=C(S)NNC(=O)c1cccs1` [Compound 1m, 4-ethyl-1-(thiophen-2-yl)carbonylthiosemicarbazide], the “solubility under the protocol conditions” value is “insoluble”.

In the case of `O=C(NNC(=S)NC1CCCCC1)c1cccs1` [Compound 1n, 4-cyclohexyl-1-(thiophen-2-yl)carbonylthiosemicarbazide], the “solubility under the protocol conditions” value was “insoluble”.

With `O=C(NNC(=S)Nc1ccc(F)cc1F)c1cccs1` [Compound 1l], the “solubility under the protocol conditions” value was “insoluble”.

For the compound `O=C(NNC(=S)Nc1ccc([N+](=O)[O-])cc1)c1cccs1` [Compound 1k], the “solubility under the protocol conditions” value was “insoluble”.

The values are drawn from publication PMC6290556, “1,4-Disubstituted Thiosemicarbazide Derivatives are Potent Inhibitors of Toxoplasma gondii Proliferation” (Molecules, 2014).
